# From patent US20230348564A1, “ANTI-CANCER PROTEINS” (UNICHEM LABORATORIES LTD, priority 2020, published 2023)
# Experiments:
# MDA-MB-231 = assay: Cell cycle analysis (PI stain); format: cell-based, Human; settings: 24 h
# Method: (§1) The cell lines were maintained in DMEM+10% FBS (heat inactivated) at 37° C. with 5% CO2, and 95% humidity. Antibiotics Penicillin (100 U/mL) and Streptomycin (100 μg/mL) were added to the medium.
# (§2) The stock solution of recombinant lectin having the amino acid sequence of SEQ ID NO. […] Doxorubicin was used as positive control and stock solution was prepared in DMSO.
# (§3) Cells were counted using hemocytometer and plated in culture plates at density of 0.5×10^6 cells/well in DMEM+10% FBS in 6-well plates. Cells were incubated overnight to allow the cell recovery and exponential growth. Following overnight incubation, cells were sera starved in DMEM+1% FBS for 4 h. […] Untreated cells were included as Control group for test item. Cells treated with Doxorubicin were included as Positive Control group. DMSO treated cells were included as control group for Doxorubicin. After treatment, cells were incubated for a time period of 24 h. Following incubation, the pro-apoptotic effect by cell cycle was determined as follows: Cell cycle reagent contains PI stain, which stains DNA of cells in different phases of cell cycle; Sub(G0/G1), G1, S, G2 and M. Cells in Sub(G0/G1) phase correspond to apoptotic cells.
# (§4) Cells were gently harvested into pre-labeled centrifuge tubes and centrifuged at 450 g for 5 min, RT (low brake). The supernatants were removed carefully (not to touch the pellet) and discarded. 1 mL of 1×PBS was added to the pellet and resuspended gently to make homogenous suspension. Cells were centrifuged at 450 g for 5 min, RT (low brake) (washing step). The supernatant was carefully removed leaving behind approx 100 μL of PBS. Cells were resuspended gently yet thoroughly in residual PBS. Ice-cold 70% ethanol (300 μLI) was added drop-wise into cells in each tube while vortexing at low speed (fixation step). Cells were stored at 4° C. for 24 h prior to staining.
# (§5) Ethanol fixed cells were centrifuged at 450 g for 5 min, RT (low brake). The supernatant was carefully removed (not to touch the pellet) and discarded. (The pellet might not be visible but makes a thin film on surface of tube). 1 mL of 1×PBS was added into pellet and resuspended gently. Cells were incubated for 1 min at RT. Cells were centrifuged at 450 g for 5 min, RT (low brake) (washing step). The supernatant was removed carefully leaving behind approx 20 μL-50 μL of PBS. 200 μL of Cell Cycle reagent was added into each tube.
# (§6) Cells were resuspended gently, mixed and were incubated for 30 min, RT, Dark. The stained samples were transferred into 96-well plates and acquired on flow cytometer (Guava technologies). Percentage of cells in Sub (G0/G1) phase were determined. Fold increase in apoptotic cells (treated with Test Items) was determined as compared to Control (untreated cells).
# PANC-1 = assay: Cell cycle analysis (PI stain); format: cell-based, Human; settings: 24 h
# Method: as §1, §2, §3, §4, §5, §6
# [1] = tested on: MCF-10A (Human mammary epithelial cells); assay: Calcein AM cytotoxicity assay; settings: SEQ ID 2 80 μg/mL, doxorubicin 100 μM; 48h
# Method: (§7) All the cancer cell lines were procured from National Centre for Cell Science, Pune (India). The cell lines were maintained under conditions as described in Table 21 below. The cell lines were sub-cultured by trypsinization followed by splitting the cell suspension into fresh flasks and supplementing with fresh culture medium.
# (§8) All the cell lines were grown in specified media at 37° C. with 95% Humidity and […].
# (§9) The cells were trypsinized, counted by Trypan blue method in Neuebauer's Chamber and plated in wells of flat bottom 96-well plate (dark walled plate, flat bottom) at the density corresponding to 10×10^3 cells/well/180 μl medium.
# (§10) Following overnight incubation, the cells were treated with test item (20 μL) at concentrations ranging from 2.5-80 μg/mL, so that the total volume in each well is 200 μL.
# (§11) The cells were incubated with the test items or positive control for a time period of 48h. Following incubation, the cell cytotoxicity was estimated using Calcein AM Cell Viability Assay Kit from R&D systems (Cat No. 4892-010-K).
# (§12) Fluorescence was measured at 485 nm (excitation/528 run (emission) spectra using Synergy HT micro plate reader.
# (§13) Percentage cytotoxicity wrt untreated cells was calculated using formula:
# (§14) Cytotoxicity=[(RFUuntreated−RFUsample)/RFUuntreated]*100
# (§15) RFU: relative fluorescence units
# (§16) IC50 value was calculated using Graph-Pad Prism version 4.01 software.
# [2] = tested on: SK-Mel-28 (Human melanoma); assay: Calcein AM cytotoxicity assay; settings: SEQ ID 2 80 μg/mL, doxorubicin 100 μM; 48h
# Method: as §7, §8, §9, §10, §11, §12, §13, §14, §15, §16
# [3] = tested on: SKOV-3 (Human Ovary adenocarcinoma); assay: Calcein AM cytotoxicity assay; settings: SEQ ID 2 80 μg/mL, doxorubicin 100 μM; 48h
# Method: as §7, §8, §9, §10, §11, §12, §13, §14, §15, §16
# [4] = tested on: HT-29 (Human Colorectal adenocarcinoma); assay: Calcein AM cytotoxicity assay; settings: SEQ ID 2 80 μg/mL, doxorubicin 100 μM; 48h
# Method: as §7, §8, §9, §10, §11, §12, §13, §14, §15, §16
# [5] = tested on: SiHa (Human cervix squamous cell carcinoma); assay: Calcein AM cytotoxicity assay; settings: SEQ ID 2 80 μg/mL, doxorubicin 100 μM; 48h
# Method: as §7, §8, §9, §10, §11, §12, §13, §14, §15, §16
# [6] = tested on: A549 (Human lung carcinoma); assay: Calcein AM cytotoxicity assay; settings: SEQ ID 2 80 μg/mL, doxorubicin 100 μM; 48h
# Method: as §7, §8, §9, §10, §11, §12, §13, §14, §15, §16
# [7] = tested on: PBMCs (Peripheral blood mononuclear cells); assay: Calcein AM cytotoxicity assay; settings: SEQ ID 2 80 μg/mL, doxorubicin 100 μM; 48h
# Method: as §7, §8, §9, §10, §11, §12, §13, §14, §15, §16
# [8] = tested on: ZR-75-1 (Human ductal carcinoma); assay: Calcein AM cytotoxicity assay; settings: SEQ ID 2 80 μg/mL, doxorubicin 100 μM; 48h
# Method: as §7, §8, §9, §10, §11, §12, §13, §14, §15, §16
# [9] = tested on: PA-1 (Human Ovary carcinoma); assay: Calcein AM cytotoxicity assay; settings: SEQ ID 2 80 μg/mL, doxorubicin 100 μM; 48h
# Method: as §7, §8, §9, §10, §11, §12, §13, §14, §15, §16
# [10] = tested on: MCF-7 (Human breast adenocarcinoma); assay: Calcein AM cytotoxicity assay; settings: SEQ ID 2 80 μg/mL, doxorubicin 100 μM; 48h
# Method: as §7, §8, §9, §10, §11, §12, §13, §14, §15, §16
# [11] = tested on: SW620 (Human Colorectal adenocarcinoma); assay: Calcein AM cytotoxicity assay; settings: SEQ ID 2 80 μg/mL, doxorubicin 100 μM; 48h
# Method: as §7, §8, §9, §10, §11, §12, §13, §14, §15, §16
# [12] = tested on: THP-1 (Human acute monocytic leukemia); assay: Calcein AM cytotoxicity assay; settings: SEQ ID 2 80 μg/mL, doxorubicin 100 μM; 48h
# Method: as §7, §8, §9, §10, §11, §12, §13, §14, §15, §16
# [13] = tested on: AGS (Human stomach adenocarcinoma); assay: Calcein AM cytotoxicity assay; settings: SEQ ID 2 80 μg/mL, doxorubicin 100 μM; 48h
# Method: as §7, §8, §9, §10, §11, §12, §13, §14, §15, §16
# [14] = tested on: PC-3 (Human Prostate Cancer); assay: Calcein AM cytotoxicity assay; settings: SEQ ID 2 80 μg/mL, doxorubicin 100 μM; 48h
# Method: as §7, §8, §9, §10, §11, §12, §13, §14, §15, §16
# [15] = tested on: KB (Human cervical carcinoma); assay: Calcein AM cytotoxicity assay; settings: SEQ ID 2 80 μg/mL, doxorubicin 100 μM; 48h
# Method: as §7, §8, §9, §10, §11, §12, §13, §14, §15, §16
# [16] = tested on: Human Primary mammary epithelial (HMEC) cells; assay: Calcein AM cytotoxicity assay; settings: SEQ ID 2 80 μg/mL, doxorubicin 100 μM; 48h
# Method: as §7, §8, §9, §10, §11, §12, §13, §14, §15, §16
compound,measurement,setting,value
"COc1cccc2c1C(=O)c1c(O)c3c(c(O)c1C2=O)C[C@@](O)(C(=O)CO)C[C@@H]3O[C@H]1C[C@H](N)[C@H](O)[C@H](C)O1 [Doxorubicin, reference compound]","% Population of cells, Apoptotic Sub(G0/G1)",MDA-MB-231; 10 μM,11.09%
same,"% Population of cells, G0/G1",MDA-MB-231; 10 μM,40.26%
same,"% Population of cells, G2/M",MDA-MB-231; 10 μM,18.52%
same,"% Population of cells, S",MDA-MB-231; 10 μM,22.70%
same,"% Population of cells, Apoptotic Sub(G0/G1)",MDA-MB-231; 100 μM,92.02%
same,"% Population of cells, G0/G1",MDA-MB-231; 100 μM,5.64%
same,"% Population of cells, G2/M",MDA-MB-231; 100 μM,0.83%
same,"% Population of cells, S",MDA-MB-231; 100 μM,1.17%
same,"% Population of cells, Apoptotic Sub(G0/G1)",PANC-1; 10 μM,14.74%
same,"% Population of cells, G0/G1",PANC-1; 10 μM,15.84%
same,"% Population of cells, G2/M",PANC-1; 10 μM,27.44%
same,"% Population of cells, S",PANC-1; 10 μM,18.45%
same,"% Population of cells, Apoptotic Sub(G0/G1)",PANC-1; 100 μM,89.13%
same,"% Population of cells, G0/G1",PANC-1; 100 μM,9.65%
same,"% Population of cells, G2/M",PANC-1; 100 μM,0.15%
same,"% Population of cells, S",PANC-1; 100 μM,0.59%
same,Cytotoxicity at highest concentration tested,[1],93.8%
same,Cytotoxicity at highest concentration tested,[2],65.9%
same,Cytotoxicity at highest concentration tested,[3],61.74%
same,Cytotoxicity at highest concentration tested,[4],75.0%
same,Cytotoxicity at highest concentration tested,[5],87.2%
same,Cytotoxicity at highest concentration tested,[6],78.4%
same,Cytotoxicity at highest concentration tested,[7],64.3%
same,Cytotoxicity at highest concentration tested,[8],52.6%
same,Cytotoxicity at highest concentration tested,[9],82.3%
same,Cytotoxicity at highest concentration tested,[10],60.7%
same,Cytotoxicity at highest concentration tested,[11],93.5%
same,Cytotoxicity at highest concentration tested,[12],33.6%
same,Cytotoxicity at highest concentration tested,[13],81.0%
same,Cytotoxicity at highest concentration tested,[14],75.3%
same,Cytotoxicity at highest concentration tested,[15],92.0%
same,Cytotoxicity at highest concentration tested,[16],87.6%
